Where a SMILES comes first, the peptide text is derived from it. [ ]: non-standard residue; d: D form. The star is where a group is joined. NHCH2CH2OH = OCCN*; For = O=C*
Legend:
[1] = H+/Na+ transport assay of bead-derived peptides (one-point); format: biochemical; set-up: key: relative activity; mean of two control wells = 1.00; details: bead-derived peptide solution, EYPC/EYPG LUVs;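 further: relative to parent gramicidin A activity set to 1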
Protocol: (§1) Each type of assay must be simplified and miniaturized to assess the activities of the library peptides in a 96-well format for the high-throughput screening.
H+/Na+ transport assay of bead-derived peptides.1,2,3 Trisodium 8-hydroxypyrene-1,3,6-trisulfonate
mini-extruder apparatus (Avanti Polar Lipids).
28.9 µmol) in CHCl3 (225 µL) and egg yolk phosphatidylglycerol (1.20 mg, 1.56 µmol) in CHCl3 (60.0 µL)
The thin film was hydrated and
1.0 mM pyranine) by sonication.
A suspension of the LUVs was immediately
used for the H+/Na+ transport assay.
The diluted solution of peptide
flat-bottom 96-well plate (655086, Greiner bio-one).
was vortexed at room temperature for 30 min.
(5/95, 3.0 µL) and the LUV suspension were mixed in each plate to determine 100% lysis. The untreated
LUV suspension was used to determine 0% lysis.
normalized against 100% lysis by Triton X-100 (Imax) and 0% lysis (I0) as following, where Ix is the
fluorescence intensity (Supplementary Equation 2).
I = 100 × (Ix – I0) / (Imax – I0) (2)
The mean value of the two control wells was set to 1.00. […]

[2] = test system: Streptococcus pyogenes SSI-9; assay: Antibacterial activity assay of bead-derived peptides (three concentrations); format: cell-based; set-up: key: +++: inhibition by the 640-fold diluted peptide solution; ++: inhibition by the 160-fold diluted solution; +: inhibition by the 40-fold diluted solution; -: no inhibition; details: S. pyogenes, bead-derived peptide solution, three concentrations
Protocol: as §1
Next, the peptides in groups A and B were subjected to the antibacterial assay and structural determination. Three peptide concentrations were applied to evaluate the growth inhibition of S. pyogenes and determine the antibacterial activity. […] Finally, the structures of the peptides were determined. […]
Antibacterial activity assay of bead-derived peptides. The stock solution of the peptide library was 4- and […]
16-fold diluted with DMSO. The non-diluted stock solution, 4-fold diluted solution, and 16-fold diluted […]
solution were transferred to the 96-well round-bottom plate (3367, Corning, 1.0 µL/well). To the solution of […]
peptide in each well was added a suspension of Streptococcus pyogenes SSI-9 strain in cation adjusted […]
Mueller Hinton Broth [40.0 µL, 2 × 10^5 colony forming units (CFU), 21 g/L Mueller Hinton Broth (Difco), 50 […]
mg/L Ca2+ (adjusted with CaCl2•2H2O), and 25 mg/L Mg2+ (adjusted with MgCl2•6H2O)] supplemented with […]
5% laked horse blood (Nippon Biotest Laboratories). The plate was incubated at 37 °C for 18 h, and the precipitation of the grown cells was examined. […]

[3] = test system: P388 mouse leukemia cells; details: 92 h
Source text: Each type of assay must be simplified and miniaturized to assess the activities of the library peptides in a 96-well format for the high-throughput screening. […]
Mammalian cytotoxicity assay of bead-derived peptides . P388 cells were obtained from Institute of
Development Aging and Cancer (Tohoku University). The cells were maintained with growth medium
[RPMI1640 with phenol red ( Fujifilm Wako Pure Chemical) supplemented with 10% heat -inactivated fetal
bovine serum, pe nicillin G (100 units/mL), and streptomycin (100 µg/mL)] under atmosphere of 5% CO 2 at
The collected cells were resuspended into
the growth medium at 2 × 10^4 cells/mL. The stock solutions of the peptide library were 250-fold diluted
with the growth medium. Aliquots of the medium (100 µL) containing peptides and the latter medium
containing P388 cells (100 µL) were mixed in a 96-well cell culture plate (TR5003, TrueLine). The final
concentration of P388 cells was 1 × 10^4 cells/mL. After incubation under atmosphere of 5% CO2 at 37 °C
for 92 h, the numbers of viable cells were determined by
2-(4-iodophenyl)-3-(4-nitrophenyl)-5-(2,4-disulfophenyl)-2H-tetrazolium, monosodium salt (WST-1) assay.
A solution of 1-methoxy-5-methylphenazinium methyl sulfate (1-methoxy PMS) and WST-1 in the growth
medium (1-methoxy PMS 0.70 mg/mL in Milli-Q/WST-1 3.6 mg/mL in pH 7.4 HEPES buffer = 1/9) was
added to each well of the plate (10.0 µL/well). The plate was incubated for 4 h under atmosphere of 5% CO2
at 37 °C. The absorbance of each well at 415 nm was measured using a Benchmark microplate reader
(Bio-Rad). The cytotoxicities were evaluated as cell viability (%). […]

SMILES	H+/Na+ transport activity normalized against the value of 1 (1.00) [1]	antibacterial activity [2]	cell viability/% [3] [%]
CC(C)C[C@@H](NC(=O)[C@H](C)NC(=O)CNC(=O)[C@@H](NC=O)C(C)C)C(=O)N[C@@H](C)C(=O)N[C@@H](C(=O)N[C@H](C(=O)N[C@H](CC(C)C)C(=O)N[C@@H](Cc1c[nH]c2ccccc12)C(=O)N[C@@H](C(=O)N[C@@H](Cc1c[nH]c2ccccc12)C(=O)N[C@H](CC(C)C)C(=O)N[C@@H](Cc1c[nH]c2ccccc12)C(=O)N[C@@H](C(=O)N[C@@H](Cc1c[nH]c2ccccc12)C(=O)NCCO)[C@H](C)O)C(C)C)C(C)C)C(C)C [compound 1522] (For-VGA[dL]A[dV]V[dL]W[dV]W[dL]W[dT]W-NHCH2CH2OH)	1.03	-	100.0
CC(C)C[C@@H](NC(=O)[C@H](C)NC(=O)[C@H](NC(=O)[C@H](C)NC(=O)CNC(=O)[C@@H](NC=O)C(C)C)C(C)C)C(=O)N[C@H](C(=O)N[C@@H](C(=O)N[C@@H](Cc1c[nH]c2ccccc12)C(=O)N[C@@H](C(=O)N[C@@H](Cc1c[nH]c2ccccc12)C(=O)N[C@H](CC(C)C)C(=O)N[C@@H](Cc1c[nH]c2ccccc12)C(=O)N[C@@H](C(=O)N[C@@H](Cc1c[nH]c2ccccc12)C(=O)NCCO)[C@H](C)O)C(C)C)C(C)C)C(C)C [compound 12285] (For-VGA[dV]A[dL]V[dV]W[dV]W[dL]W[dT]W-NHCH2CH2OH)	1.01	-	100.0
CNC(=O)C[C@@H](NC(=O)[C@H](Cc1c[nH]c2ccccc12)NC(=O)[C@H](NC(=O)[C@H](Cc1c[nH]c2ccccc12)NC(=O)[C@H](NC(=O)[C@H](Cc1c[nH]c2ccccc12)NC(=O)[C@@H](CC(C)C)NC(=O)[C@@H](NC(=O)[C@H](NC(=O)[C@H](C)NC(=O)[C@@H](CC(C)C)NC(=O)[C@H](C)NC(=O)CNC(=O)[C@@H](NC=O)C(C)C)C(C)C)C(C)C)C(C)C)C(C)C)C(=O)N[C@@H](Cc1c[nH]c2ccccc12)C(=O)NCCO [compound 6808] (For-VGA[dL]A[dV]V[dL]W[dV]W[dV]W[dD](NHMe)W-NHCH2CH2OH)	1.02	-	100.0
CC(C)C[C@@H](NC(=O)[C@H](C)NC(=O)[C@H](NC(=O)[C@H](C)NC(=O)CNC(=O)[C@@H](NC=O)C(C)C)C(C)C)C(=O)N[C@H](C(=O)N[C@@H](C(=O)N[C@@H](Cc1c[nH]c2ccccc12)C(=O)N[C@@H](C(=O)N[C@@H](Cc1c[nH]c2ccccc12)C(=O)N[C@@H](C(=O)N[C@@H](Cc1c[nH]c2ccccc12)C(=O)N[C@H](CC(C)C)C(=O)N[C@@H](Cc1c[nH]c2ccccc12)C(=O)NCCO)C(C)C)C(C)C)[C@H](C)O)C(C)C [compound 9738] (For-VGA[dV]A[dL]V[dT]W[dV]W[dV]W[dL]W-NHCH2CH2OH)	1.21	-	100.0
CNC(=O)C[C@@H](NC(=O)[C@@H](NC(=O)[C@H](NC(=O)[C@H](C)NC(=O)[C@@H](CC(C)C)NC(=O)[C@H](C)NC(=O)CNC(=O)[C@@H](NC=O)C(C)C)C(C)C)C(C)C)C(=O)N[C@@H](Cc1c[nH]c2ccccc12)C(=O)N[C@@H](C(=O)N[C@@H](Cc1c[nH]c2ccccc12)C(=O)N[C@H](CC(C)C)C(=O)N[C@@H](Cc1c[nH]c2ccccc12)C(=O)N[C@H](CC(C)C)C(=O)N[C@@H](Cc1c[nH]c2ccccc12)C(=O)NCCO)C(C)C [compound 7808] (For-VGA[dL]A[dV]V[dD](NHMe)W[dV]W[dL]W[dL]W-NHCH2CH2OH)	1.21	-	100.0
CC(C)C[C@@H](NC(=O)[C@H](C)NC(=O)CNC(=O)[C@@H](NC=O)C(C)C)C(=O)N[C@@H](C)C(=O)N[C@@H](C(=O)N[C@H](C(=O)N[C@@H](C(=O)N[C@@H](Cc1c[nH]c2ccccc12)C(=O)N[C@@H](C(=O)N[C@@H](Cc1c[nH]c2ccccc12)C(=O)N[C@@H](C(=O)N[C@@H](Cc1c[nH]c2ccccc12)C(=O)N[C@H](CC(C)C)C(=O)N[C@@H](Cc1c[nH]c2ccccc12)C(=O)NCCO)C(C)C)C(C)C)[C@H](C)O)C(C)C)C(C)C [compound 4493] (For-VGA[dL]A[dV]V[dT]W[dV]W[dV]W[dL]W-NHCH2CH2OH)	1.19	-	100.0
CNC(=O)C[C@@H](NC(=O)[C@@H](NC(=O)[C@@H](CC(C)C)NC(=O)[C@H](C)NC(=O)[C@@H](CC(C)C)NC(=O)[C@H](C)NC(=O)CNC(=O)[C@@H](NC=O)C(C)C)C(C)C)C(=O)N[C@@H](Cc1c[nH]c2ccccc12)C(=O)N[C@H](CC(C)C)C(=O)N[C@@H](Cc1c[nH]c2ccccc12)C(=O)N[C@H](CC(C)C)C(=O)N[C@@H](Cc1c[nH]c2ccccc12)C(=O)N[C@H](CC(C)C)C(=O)N[C@@H](Cc1c[nH]c2ccccc12)C(=O)NCCO [compound 2444] (For-VGA[dL]A[dL]V[dD](NHMe)W[dL]W[dL]W[dL]W-NHCH2CH2OH)	1.32	-	100.0
CC(C)C[C@@H](NC(=O)[C@H](C)NC(=O)CNC(=O)[C@@H](NC=O)C(C)C)C(=O)N[C@@H](C)C(=O)N[C@@H](C(=O)N[C@H](C(=O)N[C@@H](C(=O)N[C@@H](Cc1c[nH]c2ccccc12)C(=O)N[C@@H](C(=O)N[C@@H](Cc1c[nH]c2ccccc12)C(=O)N[C@@H](C(=O)N[C@@H](Cc1c[nH]c2ccccc12)C(=O)N[C@H](CC(C)C)C(=O)N[C@@H](Cc1c[nH]c2ccccc12)C(=O)NCCO)C(C)C)C(C)C)[C@H](C)O)C(C)C)C(C)C [compound 4778] (For-VGA[dL]A[dV]V[dT]W[dV]W[dV]W[dL]W-NHCH2CH2OH)	1.09	-	100.0
CC(C)C[C@@H](NC(=O)[C@H](C)NC(=O)[C@H](NC(=O)[C@H](C)NC(=O)CNC(=O)[C@@H](NC=O)C(C)C)[C@H](C)O)C(=O)N[C@H](C(=O)N[C@H](CC(C)C)C(=O)N[C@@H](Cc1c[nH]c2ccccc12)C(=O)N[C@@H](C(=O)N[C@@H](Cc1c[nH]c2ccccc12)C(=O)N[C@H](CC(C)C)C(=O)N[C@@H](Cc1c[nH]c2ccccc12)C(=O)N[C@@H](C(=O)N[C@@H](Cc1c[nH]c2ccccc12)C(=O)NCCO)C(C)C)[C@H](C)O)C(C)C [compound 7135] (For-VGA[dT]A[dL]V[dL]W[dT]W[dL]W[dV]W-NHCH2CH2OH)	1.09	-	100.0
CNC(=O)C[C@@H](NC(=O)[C@H](Cc1c[nH]c2ccccc12)NC(=O)[C@@H](CC(C)C)NC(=O)[C@H](Cc1c[nH]c2ccccc12)NC(=O)[C@@H](CC(C)C)NC(=O)[C@H](Cc1c[nH]c2ccccc12)NC(=O)[C@H](NC(=O)[C@@H](NC(=O)[C@@H](CC(C)C)NC(=O)[C@H](C)NC(=O)[C@@H](CC(C)C)NC(=O)[C@H](C)NC(=O)CNC(=O)[C@@H](NC=O)C(C)C)C(C)C)C(C)C)C(=O)N[C@@H](Cc1c[nH]c2ccccc12)C(=O)NCCO [compound 11401] (For-VGA[dL]A[dL]V[dV]W[dL]W[dL]W[dD](NHMe)W-NHCH2CH2OH)	1.09	-	56.6

— paper PMC7531004, “Discovery of gramicidin A analogues with altered activities by multidimensional screening of a one-bead-one-compound library” (Nature Communications, 2020)
